Data on seven compounds can be found in article PMC2009770, “Thiophene analogues of the carcinogens benzidine and 4-aminobiphenyl: evaluation in vitro” (British Journal of Cancer, 1978).

Details of data set [1]: method as in Laham & Sinclair, 1969. As to conditions: rats; ref Laham & Sinclair, 1969; cited from earlier work.
For data set [2] the following is noted: ref Ashby & Cook, 1974; cited from earlier work.
In data set [3] the test system is BHK 21/C13 cells. As to the kind of experiment: cell-transformation assay of Styles. To be noted: presence of S-9 mix, 2 separate occasions (Fig. 2).
Data set [4] concerns Salmonella strains TA 1535, TA 1538, TA 98 and TA 100. As to the kind of experiment: Salmonella reverse-mutation assay of Ames. As to conditions: for response in the Ames assay (Fig. 1): strain TA 1538, presence of Aroclor 1254-induced rat liver S-9 mix.
A short description of data set [5]: chemical stability to heat, light and air (monitored by TLC and m.p.). The format is physicochemical. As to conditions: for stability to heat and light: monitored by TLC and m.p.; for behaviour of the solid in air and light: noted at preparation.
In data set [6] the test system is BHK 21/C13 cells. The experiment in a line: parallel cell-toxicity assay (% survivors) of the transformation assay. The format is cell-based.

For `Nc1ccc(-c2ccc([N+](=O)[O-])cc2)cc1` [4-nitro-4'-aminobiphenyl], the bladder cancer induction result in data set [1] is listed as “induces bladder cancer”.

For the compound `Nc1ccc2c(c1)sc1ccccc12` [VII, 3-amino-dibenzothiophene], the carcinogenicity entry in data set [2] is “carcinogenicity”.

For the compound `Nc1ccc(-c2ccc(N)cc2)cc1` [XI, benzidine], in data set [1], the bladder cancer induction result is recorded as “induces bladder cancer”. Besides, the “response in the cell-transformation assay” value in the data set with BHK 21/C13 cells [3] was “positive”. Moreover, the “response in the Ames assay” value in data set [4] (4 Salmonella strains, 3 separate occasions, presence and absence of Aroclor 1254-induced rat liver S-9 mix) is “positive on each occasion”. The “response in the Ames assay (Fig. 1)” value in data set [4] is recorded as “positive response”.

With `CC(=O)Nc1ccc(-c2ccc(N)s2)cc1.Cl` [XIII, 5-p-acetamidophenyl-2-thiophenamine hydrochloride], in data set [5], the “stability to heat and light” value is “unstable to heat and light”; the “behaviour of the solid in air and light” value was “sensitive to light and air”.

As to `Cl.Nc1ccc(-c2ccccc2)s1` [XIV, 5-phenyl-2-thiophenamine hydrochloride], in data set [5], the “stability to heat and light” value is “unstable to heat and light”; the “behaviour of the solid in air and light” value was “discolours quickly in air and light”.

`CC(=O)Nc1ccc(-c2ccc(NC(C)=O)s2)cc1` [XV, N-(5-p-acetamido-phenylthiophen-2-yl)acetamide]: the “cytotoxicity (toxicity curve, % survivors)” value with BHK 21/C13 cells [6] was “toxicity curve similar to that of benzidine”. For the same compound, the “stability to heat and light” value in data set [5] is on record as “stable”. For the same compound, the “response in the Ames assay (Fig. 1)” value in data set [4] was “positive response”.

Turning to `CC(=O)Nc1ccc(-c2ccccc2)s1` [XVI, N-(5-phenylthiophen-2-yl)-acetamide], the “cytotoxicity (toxicity curve, % survivors)” value in the data set with BHK 21/C13 cells [6] is given as “toxicity curve similar to that of benzidine”. Further, the “stability to heat and light” value in data set [5] was “stable”.
